Laboratory results: patent US20220033407A1, “N-(pyridin-2-ylsulfonyl)cyclopropanecarboxamide Derivatives and their Use in the Treatment of Disease” (NOVARTIS AG, priority 2018, published 2022)
pEC50: −log10 of the molar value.

Columns and labels:
delF508-CFTR-HRP = molecular target: T1, delF508-CFTR-HRP (Homo sapiens, UniProt P13569, DEL508-508); experiment: Measurement of delF508-CFTR-HRP surface expression in CFBE41o- cells (HRP luminescence); format: cell-based; settings: for Emax: CFBE41o-, read-out: DelF508-CFTR-HRP Amax %; for pEC50: mean of at least two replicates;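 for DelF508-CFTR-HRP Amax %: percent efficacy relative to a reference CFTR corrector compound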
T1 construct: expressed in transfected cells
T1 sequence (P13569 with tags, fused parts or gaps DEL508-508): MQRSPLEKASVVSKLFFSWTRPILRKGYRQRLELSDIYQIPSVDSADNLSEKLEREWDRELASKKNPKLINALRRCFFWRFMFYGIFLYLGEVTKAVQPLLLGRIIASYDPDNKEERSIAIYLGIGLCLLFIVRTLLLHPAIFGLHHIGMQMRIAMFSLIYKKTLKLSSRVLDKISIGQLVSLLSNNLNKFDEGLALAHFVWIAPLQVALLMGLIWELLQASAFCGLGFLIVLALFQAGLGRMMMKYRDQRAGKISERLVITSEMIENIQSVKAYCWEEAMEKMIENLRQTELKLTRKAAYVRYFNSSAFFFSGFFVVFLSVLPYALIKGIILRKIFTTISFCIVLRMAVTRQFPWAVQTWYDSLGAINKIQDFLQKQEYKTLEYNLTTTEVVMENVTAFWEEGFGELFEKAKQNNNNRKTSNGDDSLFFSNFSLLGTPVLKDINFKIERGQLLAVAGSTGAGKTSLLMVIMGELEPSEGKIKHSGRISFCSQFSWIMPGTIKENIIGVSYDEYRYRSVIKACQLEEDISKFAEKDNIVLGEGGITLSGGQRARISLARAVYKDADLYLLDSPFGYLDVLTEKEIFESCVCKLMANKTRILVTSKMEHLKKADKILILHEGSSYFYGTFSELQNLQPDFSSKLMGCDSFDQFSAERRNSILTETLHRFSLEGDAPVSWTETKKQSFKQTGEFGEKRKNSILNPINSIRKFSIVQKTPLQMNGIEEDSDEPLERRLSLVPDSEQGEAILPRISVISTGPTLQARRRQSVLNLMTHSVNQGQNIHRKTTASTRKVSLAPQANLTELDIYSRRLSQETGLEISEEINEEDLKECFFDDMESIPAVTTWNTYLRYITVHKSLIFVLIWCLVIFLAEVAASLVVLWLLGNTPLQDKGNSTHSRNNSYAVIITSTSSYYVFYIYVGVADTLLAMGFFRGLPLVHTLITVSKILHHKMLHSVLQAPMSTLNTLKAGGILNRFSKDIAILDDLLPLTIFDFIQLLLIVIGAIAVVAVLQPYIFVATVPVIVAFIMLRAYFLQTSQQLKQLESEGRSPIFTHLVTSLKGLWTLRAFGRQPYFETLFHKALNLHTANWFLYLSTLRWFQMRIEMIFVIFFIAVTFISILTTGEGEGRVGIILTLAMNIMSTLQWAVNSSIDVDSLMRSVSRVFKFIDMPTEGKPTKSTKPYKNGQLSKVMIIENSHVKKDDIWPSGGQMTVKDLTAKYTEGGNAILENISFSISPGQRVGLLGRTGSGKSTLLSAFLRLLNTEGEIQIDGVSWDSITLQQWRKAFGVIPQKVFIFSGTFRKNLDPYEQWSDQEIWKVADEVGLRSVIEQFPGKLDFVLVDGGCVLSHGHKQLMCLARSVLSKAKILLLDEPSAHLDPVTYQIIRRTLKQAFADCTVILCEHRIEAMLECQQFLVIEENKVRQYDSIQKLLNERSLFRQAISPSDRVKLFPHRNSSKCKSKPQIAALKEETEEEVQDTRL
Method in brief: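 Stably transfected CFBE41o- cells carrying HRP in the fourth extracellular loop of delF508-CFTR, induced with 500 ng/mL doxycycline for 48 h, then compound-treated 24 h at 37° C (10-point, 3-fold, top 10 μM). Surface HRP detected by luminescent substrate; EC50 from logistic fit, triplicates, normalized to lowest-concentration median.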

delF508-CFTR = molecular target: T2, delF508-CFTR (Homo sapiens, UniProt P13569, DEL508-508); experiment: delF508-CFTR functional activity in primary human bronchial epithelial cells (HBECs), Multi-Transepithelial Clamp Circuit (MTECC-24) assay, equivalent short circuit current; format: cell-based; settings: primary CF HBECs; for MTECC24 CFHBEC-Amax %: relative to reference combination 2 μM 3-(6-(1-(2,2-difluorobenzo[d][1,3]dioxol-5-yl)cyclopropane-1-carboxamido)-3-methylpyridin-2-yl)benzoic acid (24 h) + 0.5 μM N-(2,4-di-tert-butyl-5-hydroxyphenyl)-4-oxo-1,4-dihydroquinoline-3-carboxamide; for pEC50: test compound added 24 h before assay, potentiator (S)-3-amino-6-methoxy-N-(3,3,3-trifluoro-2-hydroxy-2-methylpropyl)-5-(trifluoromethyl)picolinamide present at assay, mean of at least two replicates, read-out: MTECC24 CFHBEC-EC50
T2 construct: functional activity of the CFTR channel (Chloride ion transport) in patient derived primary human bronchial epithelial cells; host or cells: patient-derived primary human bronchial epithelial cells (HBECs), delF508-CFTR
T2 sequence (P13569 with tags, fused parts or gaps DEL508-508): as above
Method in brief: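 Patient-derived delF508 HBECs, grown at air-liquid interface about two weeks, were corrected with compound basolaterally for 24 h. Compound was then re-added apically and basolaterally in HEPES pH7.4 assay medium, with sequential modulators including forskolin and the picolinamide potentiator. Ieq was recorded, normalised to 0.1% DMSO wells, and EC50 fitted from 10-point curves.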

Compound	Emax (delF508-CFTR-HRP)	pEC50 (delF508-CFTR-HRP)	MTECC24 CFHBEC-Amax % (delF508-CFTR)	pEC50 (delF508-CFTR)	DelF508-CFTR-HRP Amax % (delF508-CFTR-HRP)
Cc1ccc(C2CCCCCC2)c(OC2(C(=O)NS(=O)(=O)c3cccc(N)n3)CC2)c1 [Example 1-6, N-((6-Aminopyridin-2-yl)sulfonyl)-1-(2-cycloheptyl-5-methylphenoxy)cyclopropane-1-carboxamide]	765%	5.88	87%	8.70	
Cc1ccc(C2CCCCC2)c(OC2(C(=O)NS(=O)(=O)c3cccc(N4CCC5(CCCC5N)CC4)n3)CC2)c1 (single isomer, unassigned) [Example 2-32-1, N-((6-(1-Amino-8-azaspiro[4.5]decan-8-yl)pyridin-2-yl)sulfonyl)-1-(2-cyclohexyl-5-methylphenoxy)cyclopropanecarboxamide]		5.47	78%	7.92	537%
Cc1ccc(C2CCCCC2)c(OC2(C(=O)NS(=O)(=O)c3cccc(N4CCC5(CCCC5N)CC4)n3)CC2)c1 (stereo not drawn) [Example 2-20, N-((6-(1-Amino-8-azaspiro[4.5]decan-8-yl)pyridin-2-yl)sulfonyl)-1-(2-cyclohexyl-5-methylphenoxy)cyclopropanecarboxamide]	354%	5.60	122%	6.70	
Cc1ccc(C2CCCCC2)c(OC2(C(=O)NS(=O)(=O)c3cccc(NC[C@H](C)O)n3)CC2)c1 [Example 2-47, (S)-1-(2-Cyclonexyl-5-methylphenoxy)-N-((6-((2-hydroxypropyl)amino)pyridin-2-yl)sulfonyl)cyclopropane-1-carboxamide]	747%	5.62	97%	8.22	
Cc1ccc(C2CCCCC2)c(OC2(C(=O)NS(=O)(=O)c3cccc(N(C)C)n3)CC2)c1 [Example 2-25, 1-(2-Cyclohexyl-5-methylphenoxy)-N-((6-(dimethylamino)pyridin-2-yl)sulfonyl)cyclopropanecarboxamide]	661%	5.84	89%	9.00	
COC(=O)C1CCN(c2cccc(S(=O)(=O)NC(=O)C3(Oc4cc(C)ccc4C4CCCCC4)CC3)n2)CC1 [Example 2-4, Methyl 1-(6-(N-(1-(2-cyclohexyl-5-methylphenoxy)cyclopropane-1-carbonyl)sulfamoyl)pyridin-2-yl)piperidine-4-carboxylate]	808%	5.89	91%	8.00	
Cc1ccc(C2CCCCC2)c(OC2(C(=O)NS(=O)(=O)c3cccc(N4CCC(C)(NC(=S)NC5CC5)CC4)n3)CC2)c1 [Example 2-23, 1-(2-Cyclohexyl-5-methylphenoxy)-N-((6-(4-(3-cyclopropylthioureido)-4-methylpiperidin-1-yl)pyridin-2-yl)sulfonyl)cyclopropanecarboxamide]	330%	5.73	66%	8.40	
[2H]C1([2H])OC([2H])([2H])C([2H])([2H])N(c2cccc(S(=O)(=O)NC(=O)C3(Oc4cc(C)ccc4C4CCCCC4)CC3)n2)C1([2H])[2H] [Example 2-39, 1-(2-Cyclohexyl-5-methylphenoxy)-N-((6-(morpholino-d8)pyridin-2-yl)sulfonyl)cyclopropane-1-carboxamide]	383%	5.74	67%	8.70	
Cc1ccc(C2CCCCC2)c(OC2(C(=O)NS(=O)(=O)c3cccc(N4CC5(CCN5C(=O)OC(C)(C)C)C4)n3)CC2)c1 [Example 2-30, Tert-butyl 6-(6-(N-(1-(2-cyclohexyl-5-methylphenoxy)cyclopropanecarbonyl)sulfamoyl)pyridin-2-yl)-1,6-diazaspiro[3.3]heptane-1-carboxylate]	243%	5.75	69%	7.64	
O=C(NS(=O)(=O)c1cccc(N2CC(O)C2)n1)C1(Oc2cc(Cl)ccc2C2CCCCC2)CC1 [Example 2-57, 1-(5-Chloro-2-cyclohexylphenoxy)-N-((6-(3-hydroxyazetidin-1-yl)pyridin-2-yl)sulfonyl)cyclopropane-1-carboxamide]	328%	5.51	102%	7.92	
Cc1ccc(C2CCCCC2)c(OC2(C(=O)NS(=O)(=O)c3cccc(N4CCC(C)(NC(=O)OC(C)(C)C)C4)n3)CC2)c1 (stereo not drawn) [Example 2-24, Tert-butyl (1-(6-(N-(1-(2-cyclohexyl-5-methylphenoxy)cyclopropanecarbonyl)sulfamoyl)pyridin-2-yl)-3-methylpyrrollidin-3-yl)carbamate]	591%	5.90	62%	8.30	

Results, then the compound that gave them:

Emax (delF508-CFTR-HRP)	pEC50 (delF508-CFTR-HRP)	MTECC24 CFHBEC-Amax % (delF508-CFTR)	pEC50 (delF508-CFTR)	DelF508-CFTR-HRP Amax % (delF508-CFTR-HRP)	Compound
300%	5.69	120.3%	6.46		O=C(NS(=O)(=O)c1cccc(N2CC(O)C2)n1)C1(Oc2cc(Cl)ccc2C2CC3(CCC3)C2)CC1 [Example 7-9, 1-(5-Chloro-2-(spiro[3.3]heptan-2-yl)phenoxy)-N-((6-(3-hydroxyazetidin-1-yl)pyridin-2-yl)sulfonyl)cyclopropane-1-carboxamide]
496%	5.96	128.1%	6.50		CO[C@H]1CCN(c2cccc(S(=O)(=O)NC(=O)C3(Oc4cc(Cl)ccc4C4CC5(CCC5)C4)CC3)n2)C1 [Example 7-14, (S)-1-(5-Chloro-2-(spiro[3.3]heptan-2-yl)phenoxy)-N-((6-(3-methoxypyrrolidin-1-yl)pyridin-2-yl)sulfonyl)cyclopropane-1-carboxamide]
134%	5.33	34%	6.25		Cc1ccc(C)c(OC2(C(=O)NS(=O)(=O)c3cccc(N4CCOC[C@@H]4C)n3)CC2)c1 [Example 4-2, (S)-1-(2,5-Dimethylphenoxy)-N-((6-(3-methylmorpholino)pyridin-2-yl)sulfonyl)cyclopropane-1-carboxamide]
294%	6.38	79%	8.15		Cc1ccc(-c2cccc(C(F)(F)F)c2)c(OC2(C(=O)NS(=O)(=O)c3cccc(N4CCC(N)(C(F)(F)F)CC4)n3)CC2)c1 [Example 5-16, N-((6-(4-Amino-4-(trifluoromethyl)piperidin-1-yl)pyridin-2-yl)sulfonyl)-1-((4-methyl-3′-(trifluoromethyl)-[1,1′-biphenyl]-2-yl)oxy)cyclopropane-1-carboxamide]
418%	5.72	82%	7.29		O=C(NS(=O)(=O)c1cccc(N2CC(O)C2)n1)C1(Oc2cc(Cl)ccc2C2CCC3(CC2)CC3)CC1 [Example 4-12, 1-(5-Chloro-2-(spiro[2.5]octan-6-yl)phenoxy)-N-((6-(3-hydroxyazetidin-1-yl)pyridin-2-yl)sulfonyl)cyclopropane-1-carboxamide]
172%	5.35	48%	6.43		C[C@@H](CO)Nc1cccc(S(=O)(=O)NC(=O)C2(Oc3cc(F)ccc3C3CCC(F)(F)CC3)CC2)n1 [Example 3-2]
377%	6.38	128.4%	7.24		NC1(C(F)(F)F)CCN(c2cccc(S(=O)(=O)NC(=O)C3(Oc4cc(Cl)ccc4C4CC5(CCC5)C4)CC3)n2)CC1 [Example 7-17, N-((6-(4-amino-4-(trifluoromethyl)piperidin-1-yl)pyridin-2-yl)sulfonyl)-1-(5-chloro-2-(spiro[3.3]heptan-2-yl)phenoxy)cyclopropane-1-carboxamide]
656%	5.80	79.3%	6.54		CC1(C)CCN(c2ccc(Cl)cc2OC2(C(=O)NS(=O)(=O)c3cccc(N4CCC(O)CC4)n3)CC2)CC1 [Example 9-41, 1-(5-Chloro-2-(4,4-dimethylpiperidin-1-yl)phenoxy)-N-((6-(4-hydroxypiperidin-1-yl)pyridin-2-yl)sulfonyl)cyclopropane-1-carboxamide]
318%	5.41	87%	7.04		Cc1ccc(C2CCC(F)(F)CC2)c(OC2(C(=O)NS(=O)(=O)c3cccc(NC[C@@H](C)O)n3)CC2)c1 [Example 3-4, (R)-1-(2-(4,4-Difluorocyclohexyl)-5-methylphenoxy)-N-((6-((2-hydroxypropyl)amino)pyridin-2-yl)sulfonyl)cyclopropane-1-carboxamide]
510%	5.89	148.1%	6.26		O=C(NS(=O)(=O)c1cccc(N2CC[C@H](O)C2)n1)C1(Oc2cc(Cl)ccc2N2CC3CCC(C3)C2)CC1 [Example 9-18, 1-(2-(3-Azabicyclo[3.2.1]octan-3-yl)-5-chlorophenoxy)-N-((6-((S)-3-hydroxypyrrolidin-1-yl)pyridin-2-yl)sulfonyl)cyclopropanecarboxamide]
